{"source": "patent US11819578B2", "about": "“Nanofiber scaffolds” (Trustees of Boston University, priority 2021, dated 2023)", "key": {"[1]": {"test": "Release of small molecule cargo loaded in the PCL fibers", "assay_type": "physicochemical", "description": "FIG. 21 depicts FITC (50-500 ng) released from the fibers over the course of 90 days. FITC was loaded in the mixture of the PCL solution similar to grazoprevir loaded meshes. (n=4)\nDoxorubicin was loaded in the mixture of the PCL solution similar to grazoprevir loaded meshes. (n=3)\nWhen used with primary CD8+ HER2-targeted NS3 CAR T cells with the same grazoprevir-dependent CARs, the […] were excited (CD69 expression) when co-cultured with the meshes and HER2-expression NALM6 cells (FIG. 19).\nThe meshes ability to release doxorubicin over time was characterized as a functional delivery method for chemotherapeutic drugs."}, "[2]": {"conditions": "cited from earlier work"}}}
{"smiles": "O=C1OC2(c3ccc(O)cc3Oc3cc(O)ccc32)c2ccc(N=C=S)cc21", "note": "[FITC]", "values": [{"measurement": "period of release from the fibers", "setting": "[1]; FITC 50-500 ng loaded in the PCL solution, n=4", "result": 90, "unit": "days"}, {"measurement": "log P", "setting": "[2]", "result": 4.8}]}
{"smiles": "C=C[C@@H]1C[C@]1(NC(=O)[C@@H]1C[C@@H]2CN1C(=O)[C@H](C(C)(C)C)NC(=O)O[C@@H]1C[C@H]1CCCCCc1nc3ccc(OC)cc3nc1O2)C(=O)NS(=O)(=O)C1CC1.O", "note": "[grazoprevir]", "values": [{"measurement": "log P", "setting": "[2]", "result": 4.7}]}
{"smiles": "COc1cccc2c1C(=O)c1c(O)c3c(c(O)c1C2=O)C[C@@](O)(C(=O)CO)C[C@@H]3O[C@H]1C[C@H](N)[C@H](O)[C@H](C)O1", "note": "[doxorubicin]", "values": [{"measurement": "period of release from the fibers", "setting": "[1]; 500 ug doxorubicin loaded in the PCL solution, n=3", "result": 28, "unit": "days"}, {"measurement": "release over time in vitro", "setting": "[1]; in vitro, in words", "result": "several weeks to months"}]}
